Experimental data from ChEMBL document CHEMBL3785014, “A Binding Site on IL-17A for Inhibitory Macrocycles Revealed by Hydrogen/Deuterium Exchange Mass Spectrometry” (J Med Chem, 2016).
Active and inactive are the calls of the source. The rule behind the calls is not given here.

Assays:
[1] = target: Interleukin-17A (Homo sapiens) (UniProt Q16552); assay: Binding affinity to recombinant human IL-17A assessed as protection from deuterium uptake at 92 to 101 residues at 10 uM after 10 to 3600 secs by HDX-MS
Interleukin-17A (Homo sapiens), sequence (Q16552 whole entry, the tested form may be a part): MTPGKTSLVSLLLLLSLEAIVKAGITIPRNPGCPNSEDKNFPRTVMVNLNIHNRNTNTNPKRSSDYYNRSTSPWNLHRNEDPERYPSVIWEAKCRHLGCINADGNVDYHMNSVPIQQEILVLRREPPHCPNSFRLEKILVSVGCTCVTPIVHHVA

[2] = target: Interleukin-17A (Homo sapiens) (UniProt Q16552); assay: Binding affinity to recombinant human IL-17A assessed as increase in deuterium uptake at 102 to 120 residues at 10 uM after 10 to 3600 secs by HDX-MS
[3] = target: Interleukin-17A (Homo sapiens) (UniProt Q16552); assay: Binding affinity to recombinant human IL-17A assessed as protection from deuterium uptake at 99 to 103 residues at 10 uM after 10 to 3600 secs by HDX-MS
[4] = target: Interleukin-17A (Homo sapiens) (UniProt Q16552); assay: Binding affinity to recombinant human IL-17A assessed as protection from deuterium uptake at 90 to 101 residues at 10 uM after 10 to 3600 secs by HDX-MS
[5] = target: Interleukin-17A (Homo sapiens) (UniProt Q16552); assay: Binding affinity to recombinant human IL-17A assessed as protection from deuterium uptake at 58 to 72 residues at 10 uM after 10 to 3600 secs by HDX-MS
[6] = target: Interleukin-17A (Homo sapiens) (UniProt Q16552); assay: Binding affinity to recombinant human IL-17A assessed as increase in deuterium uptake at 103 to 114 residues at 10 uM after 10 to 3600 secs by HDX-MS
[7] = target: Interleukin-17A (Homo sapiens) (UniProt Q16552); assay: Binding affinity to recombinant human IL-17A assessed as increase in deuterium uptake at 100 to 116 residues at 10 uM after 10 to 3600 secs by HDX-MS
[8] = target: Interleukin-17A (Homo sapiens) (UniProt Q16552); assay: Binding affinity to recombinant human IL-17A assessed as protection from deuterium uptake at 58 to 71 residues at 10 uM after 10 to 3600 secs by HDX-MS
[9] = target: Interleukin-17A (Homo sapiens) (UniProt Q16552); assay: Binding affinity to recombinant human IL-17A assessed as protection from deuterium uptake at 92 to 99 residues at 10 uM after 10 to 3600 secs by HDX-MS
[10] = target: Interleukin-17A (Homo sapiens) (UniProt Q16552); assay: Binding affinity to recombinant human IL-17A assessed as increase in deuterium uptake at 104 to 116 residues at 10 uM after 10 to 3600 secs by HDX-MS
[11] = target: Interleukin-17A (Homo sapiens) (UniProt Q16552); assay: Binding affinity to recombinant human IL-17A assessed as increase in deuterium uptake at 102 to 116 residues at 10 uM after 10 to 3600 secs by HDX-MS

Activity [1]	Activity [2]	Activity [3]	Activity [4]	Activity [5]	Activity [6]	Activity [7]	Activity [8]	Activity [9]	Activity [10]	Activity [11]	Structure (SMILES)
Active	Active	Active	Active	Active	Active	Active	Active	Active	Active	Active	O=C1CNC(=O)[C@@H](Cc2ccc(NC(=O)[C@H](Cc3ccccc3Cl)NC(=O)Cc3ccccc3)cc2)NC(=O)CC2(CCCC2)CC(=O)N[C@H](C(=O)O)CCCCN1
Active	Active	Active	Active	Active	Active	Active	Active	Active	Active	Active	O=C1CNC(=O)[C@@H](Cc2ccc(NC(=O)[C@H](Cc3ccccc3Cl)NC(=O)Cc3ccccc3)cc2)NC(=O)CC2(CCCC2)CC(=O)NCCCCCN1
Active	Active	Active	Active	Active	Active	Active	Active	Active	Active	Active	O=C1CC2(CCCC2)CC(=O)N[C@H](Cc2ccc(NC(=O)[C@H](Cc3ccccc3Cl)NC(=O)Cc3cccc(O)c3)cc2)C(=O)NCCOCCOCCN1
